# Measured values: patent publication US20090203605A1, “Methods For Treating A Condition Characterized By Dysfunction In Protein Homeostasis” (THE SCRIPPS RESEARCH INSTITUTE, priority 2008, published 2009)
# Assays:
# L444P GC = molecular target: T1, L444P GC (Homo sapiens, UniProt P04062, L483P); experiment: GC activity assay in L444P GC Gaucher patient-derived fibroblasts; type: cell-based; details: for L444P GC activity, maximum fold increase: 30 μM
# T1 construct: a L444P GC Gaucher fibroblast cell line (GM08760); host or cells: Gaucher patient-derived skin fibroblasts
# T1 sequence (P04062 40-536 L483P): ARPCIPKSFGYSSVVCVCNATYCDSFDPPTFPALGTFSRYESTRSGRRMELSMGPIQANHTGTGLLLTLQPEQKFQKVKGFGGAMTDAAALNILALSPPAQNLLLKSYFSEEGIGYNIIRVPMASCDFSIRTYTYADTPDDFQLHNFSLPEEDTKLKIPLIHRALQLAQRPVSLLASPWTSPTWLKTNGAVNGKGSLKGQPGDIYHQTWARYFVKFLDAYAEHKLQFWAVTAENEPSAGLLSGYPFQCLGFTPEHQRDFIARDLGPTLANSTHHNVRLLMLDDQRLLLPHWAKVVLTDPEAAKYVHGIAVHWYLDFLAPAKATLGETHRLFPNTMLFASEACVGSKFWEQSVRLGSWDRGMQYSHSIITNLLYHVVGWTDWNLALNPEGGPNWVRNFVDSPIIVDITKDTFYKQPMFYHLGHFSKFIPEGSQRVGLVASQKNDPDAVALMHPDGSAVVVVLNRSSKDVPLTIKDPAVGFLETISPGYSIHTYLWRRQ
# Ca^2+ channel = details: cited from earlier work; for IC50: previously reported, Li et al., J Med Chem 35: 3246-3253, 1992, read-out: Ca^2+ channel blocker IC50
# G269S/1278insTATC HexA = molecular target: T2, G269S/1278insTATC HexA (Homo sapiens, UniProt P06865, G269S); experiment: Hex α-site cell assay in Tay-Sachs fibroblast cell line; type: cell-based; details: ADNJ 20 to 50 μM, exposed once without media changes, after 192 h
# T2 construct: host or cells: Tay-Sachs patient fibroblasts, lysed for the MUGS assay
# T2 sequence (P06865 89-529 G269S): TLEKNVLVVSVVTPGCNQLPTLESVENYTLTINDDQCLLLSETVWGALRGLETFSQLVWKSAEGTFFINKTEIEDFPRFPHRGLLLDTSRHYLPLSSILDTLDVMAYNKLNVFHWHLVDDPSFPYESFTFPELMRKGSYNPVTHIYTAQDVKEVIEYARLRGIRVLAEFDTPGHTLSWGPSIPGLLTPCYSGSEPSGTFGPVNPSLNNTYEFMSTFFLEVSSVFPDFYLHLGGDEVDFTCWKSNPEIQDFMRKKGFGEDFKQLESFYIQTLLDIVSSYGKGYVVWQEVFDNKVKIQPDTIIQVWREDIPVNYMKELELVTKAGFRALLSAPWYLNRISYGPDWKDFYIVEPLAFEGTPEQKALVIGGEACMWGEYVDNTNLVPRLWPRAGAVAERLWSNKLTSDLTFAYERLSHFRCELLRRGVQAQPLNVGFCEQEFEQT
# T2 sequence (P07686 122-556 partner): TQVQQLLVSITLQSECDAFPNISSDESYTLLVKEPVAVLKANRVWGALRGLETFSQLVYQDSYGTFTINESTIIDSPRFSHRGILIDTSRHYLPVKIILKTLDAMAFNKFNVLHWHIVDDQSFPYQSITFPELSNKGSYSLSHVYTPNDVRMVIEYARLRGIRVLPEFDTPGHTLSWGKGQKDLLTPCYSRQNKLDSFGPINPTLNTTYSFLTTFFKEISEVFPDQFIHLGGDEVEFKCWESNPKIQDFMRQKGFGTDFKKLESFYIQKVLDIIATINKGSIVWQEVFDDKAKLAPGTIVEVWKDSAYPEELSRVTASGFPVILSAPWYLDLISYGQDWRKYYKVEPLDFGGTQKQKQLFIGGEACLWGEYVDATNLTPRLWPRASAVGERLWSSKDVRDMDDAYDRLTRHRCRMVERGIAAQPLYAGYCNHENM
# Excerpt: We therefore evaluated the ability of these proteostasis regulators to restore partial function to HexA, a heterodimeric enzyme composed of α- and β-subunits that degrades GM2 gangliosides in the lysosome. Mutations in the β-hexosaminidase A α-subunit can cause extensive ERAD of HexA, leading to Tay-Sachs disease (TSD). Jeyakumar et al., Neuropathol Appl Neurobiol 28: 343-357, 2002. HexA activity was studied in a compound heterozygous fibroblast cell line (GM13204), harboring one of the most prevalent β-hexosaminidase A α-subunit mutations (G269S) found in Tay-Sachs patients and a second mutated HexA allele (1278insTATC) with a stop codon. […] Tropak et al., J Biol Chem 279: 13478-13487, 2004.
# The Hex α-site cell assay has been previously described. Tropak et al., J Biol Chem 279: 13478-13487, 2004. Cells were plated as described for the GC assay. After 1 to 8 days of incubation the medium was removed, cells were washed with PBS, and lysed with 60 μl of 10 mM citrate/phosphate buffer pH 4.2 (CP buffer) containing 0.5% human serum albumin and 0.5% Triton X-100. 30 μl of aliquots were transferred to a 96-well plate and Hex α-site activity was measured by adding 30 μl of 3.2 mM MUGS in CP buffer to each well and incubating the plates at 37° C. for 1 to 7 hour. The reaction was stopped by adding 200 μl of 0.1 M 2-amino-2-methyl-1-propanol pH 10.5 and the fluorescence was measured (excitation 365 nm, emission 450 nm).
# [1] = 7 days, intact cell GC activity assay (FIG. 19D)
compound,measurement,setting,value
C1CCCC2CCCN3CCC(CCCCCCC4CCCN5CCC(CC1)OC45)OC23 (stereo not drawn) [XeC],effect on L444P GC activity,L444P GC; IP3R inhibitors (FIG. 33),None of the compounds enhanced L444P GC activity
"CNCCN1C(=O)[C@H](O)[C@H](c2ccc(O)cc2)Sc2ccccc21 [Compound 4, (2S,3S)-2,3-Dihydro-3-hydroxy-2-(4-hydroxyphenyl)-5-[2-(methylamino)ethyl]-1,5-benzothiazepin-4(5H)-one]","L444P GC activity, maximum fold increase",L444P GC; [1],1.2 fold
same,IC50,Ca^2+ channel,127 µM
"CN(C)CCN1C(=O)[C@H](O)[C@H](c2ccc(O)cc2)Sc2ccccc21 [Compound 3, (2S,3S)-5-[2-(Dimethylamino)ethyl]-2,3-dihydro-3-hydroxy-2-(4-hydroxyphenyl)-1,5-benzothiazepin-4(5H)-one]","L444P GC activity, maximum fold increase",L444P GC; [1],1.3 fold
same,IC50,Ca^2+ channel,45.5 µM
C=C[C@H]1C[N@@]2CC[C@H]1C[C@H]2[C@H](O)c1ccnc2ccc(OC)cc12 [quinine],effect on L444P GC activity,L444P GC; IP3R inhibitors (FIG. 33),None of the compounds enhanced L444P GC activity
"CC(=O)N[C@H]1C(O)N[C@H](CO)[C@H](O)[C@@H]1O (stereo partly drawn) [ADNJ, 2-Acetamido-2-deoxynojirimycin]",Hex α-site activity as % of cellular WT Hex α-site activity,G269S/1278insTATC HexA,25%
same,"cellular Hex α-site activity, fold increase",G269S/1278insTATC HexA,2.5 fold
C[CH2][Hg][S]c1ccccc1C(=O)[O-].[Na+] [thimerosal],effect on L444P GC activity,L444P GC; IP3R inhibitors (FIG. 33),None of the compounds enhanced L444P GC activity
COc1ccc([C@@H]2Sc3ccccc3NC(=O)[C@@H]2O)cc1 [Compound 6],effect on L444P GC activity,"L444P GC; 0.3 to 100 μM, 7 days, intact cell GC activity assay (FIG. 19D)",do not increase L444P GC activity
same,Ca^2+ channel antagonist activity,"Ca^2+ channel; according to reported SAR studies, lack basic amino nitrogen pharmacophore",not Ca^2+ channel antagonists
C/C=C(/C)C(=O)O[C@H]1C(C)=C2[C@H]([C@@H]1OC(=O)CCCCCCC)[C@@](C)(OC(C)=O)C[C@H](OC(=O)CCC)[C@@]1(O)[C@H]2OC(=O)[C@@]1(C)O [thapsigargin],"effect on L444P GC folding, trafficking and lysosomal activity",L444P GC; thapsigargin (FIG. 25),does not enhance
same,concentration above which L444P GC activity is decreased significantly,"L444P GC; thapsigargin alone, 7-day incubation",> 1 nM
same,effect on GC activity in L444P GC cells,"L444P GC; varying concentrations co-applied with 10 μM diltiazem, 7 days",dose-dependent decrease of GC activity
N.N.N.N.N.N.N.N.N.N.N.N.N.N.[Cl-].[Cl-].[Cl-].[Cl-].[Cl-].[Cl-].[O-2].[O-2].[Ru+3].[Ru+3].[Ru+4] [ruthenium red],"effect on L444P GC activity, intact cell GC enzyme assay","L444P GC; thermosensitive TRP channel modulators, 5-day incubation",notably increased
CC(=O)N[C@@H](CSC(=O)[C@]1([C@@H](O)C(C)C)NC(=O)[C@H](C)[C@@H]1O)C(=O)O [lactacystin],GC proteostasis regulator function,L444P GC; L444P GC cells,not a GC proteostasis regulator
COc1ccc(S(=O)(=O)N(CCO)c2ccccc2CN(C)C/C=C/c2ccc(Cl)cc2)cc1 [KN93],effect on L444P GC activity,L444P GC; IP3R inhibitors (FIG. 33),None of the compounds enhanced L444P GC activity
CCN(CC)CCCC(C)Nc1ccnc2cc(Cl)ccc12 (stereo not drawn) [chloroquinine],effect on L444P GC activity,L444P GC; IP3R inhibitors (FIG. 33),None of the compounds enhanced L444P GC activity
